Experimental data published in ChEMBL document CHEMBL5360611, “Mycobacterium tuberculosis PptT Inhibitors Based on Heterocyclic Replacements of Amidinoureas” (ACS Med Chem Lett, 2023).
In brackets after ≈: the same amount, converted by molar mass.

Tests used:
[1] = biological target: T1, 4'-phosphopantetheinyl transferase PptT (Mycobacterium tuberculosis, UniProt O33336); assay: Inhibition of Mycobacterium tuberculosis H37Rv PptT by BpsA-coupled assay
T1 sequence (O33336 whole entry): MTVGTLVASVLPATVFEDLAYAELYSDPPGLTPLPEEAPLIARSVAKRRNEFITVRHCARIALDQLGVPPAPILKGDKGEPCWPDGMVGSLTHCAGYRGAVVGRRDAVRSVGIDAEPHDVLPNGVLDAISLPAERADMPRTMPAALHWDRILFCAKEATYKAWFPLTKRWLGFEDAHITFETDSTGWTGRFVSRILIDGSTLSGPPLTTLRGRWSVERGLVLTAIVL

[2] = system: Mycobacterium tuberculosis; assay: Antimycobacterial activity against Mycobacterium tuberculosis H37Rv assessed as bacterial growth inhibition; format: functional
[3] = biological target: T1, 4'-phosphopantetheinyl transferase PptT; assay: Inhibition of Mycobacterium tuberculosis H37Rv PptT by fluorescence polarization assay
[4] = biological target: Sodium channel protein type 5 subunit alpha (Homo sapiens, UniProt Q14524); assay: Inhibition of human Nav1.5 channel ion channel transfected in HEK cells by automatic patch clamp analysis; format: toxicity, cell-based
[5] = Cytotoxicity against human THP-1 cells; format: toxicity, cell-based; conditions: read-out: TC50 (the source's name)
[6] = Cytotoxicity against human HepG2 cells; format: toxicity, cell-based; conditions: read-out: TC50 (the source's name)
[7] = biological target: T1, 4'-phosphopantetheinyl transferase PptT; assay: Inhibition of his-tagged Mycobacterium tuberculosis PptT expressed in Escherichia coli BL21 cells by BpsA-coupled assay
[8] = biological target: Voltage-gated inwardly rectifying potassium channel KCNH2 (Homo sapiens, UniProt Q12809); assay: Inhibition of hERG transfected in HEK cells by automatic patch clamp analysis; format: toxicity, cell-based
[9] = biological target: Voltage-dependent L-type calcium channel subunit alpha-1C (Homo sapiens, UniProt Q13936); assay: Inhibition of human Cav1.2 cardiac ion channel transfected in HEK cells by automatic patch clamp analysis; format: toxicity, cell-based
[10] = biological target: T1, 4'-phosphopantetheinyl transferase PptT; assay: Inhibition of Mycobacterium tuberculosis PptT by fluorescence polarization assay
[11] = Solubility of compound; format: physicochemical
[12] = Permeability of compound in human Caco-2 cells; format: ADME, cell-based; conditions: read-out: permeability
[13] = Lipophilicity, logD of compound at pH 7.4; format: physicochemical; conditions: buffer

Chain of Voltage-dependent L-type calcium channel subunit alpha-1C (Q13936 whole entry): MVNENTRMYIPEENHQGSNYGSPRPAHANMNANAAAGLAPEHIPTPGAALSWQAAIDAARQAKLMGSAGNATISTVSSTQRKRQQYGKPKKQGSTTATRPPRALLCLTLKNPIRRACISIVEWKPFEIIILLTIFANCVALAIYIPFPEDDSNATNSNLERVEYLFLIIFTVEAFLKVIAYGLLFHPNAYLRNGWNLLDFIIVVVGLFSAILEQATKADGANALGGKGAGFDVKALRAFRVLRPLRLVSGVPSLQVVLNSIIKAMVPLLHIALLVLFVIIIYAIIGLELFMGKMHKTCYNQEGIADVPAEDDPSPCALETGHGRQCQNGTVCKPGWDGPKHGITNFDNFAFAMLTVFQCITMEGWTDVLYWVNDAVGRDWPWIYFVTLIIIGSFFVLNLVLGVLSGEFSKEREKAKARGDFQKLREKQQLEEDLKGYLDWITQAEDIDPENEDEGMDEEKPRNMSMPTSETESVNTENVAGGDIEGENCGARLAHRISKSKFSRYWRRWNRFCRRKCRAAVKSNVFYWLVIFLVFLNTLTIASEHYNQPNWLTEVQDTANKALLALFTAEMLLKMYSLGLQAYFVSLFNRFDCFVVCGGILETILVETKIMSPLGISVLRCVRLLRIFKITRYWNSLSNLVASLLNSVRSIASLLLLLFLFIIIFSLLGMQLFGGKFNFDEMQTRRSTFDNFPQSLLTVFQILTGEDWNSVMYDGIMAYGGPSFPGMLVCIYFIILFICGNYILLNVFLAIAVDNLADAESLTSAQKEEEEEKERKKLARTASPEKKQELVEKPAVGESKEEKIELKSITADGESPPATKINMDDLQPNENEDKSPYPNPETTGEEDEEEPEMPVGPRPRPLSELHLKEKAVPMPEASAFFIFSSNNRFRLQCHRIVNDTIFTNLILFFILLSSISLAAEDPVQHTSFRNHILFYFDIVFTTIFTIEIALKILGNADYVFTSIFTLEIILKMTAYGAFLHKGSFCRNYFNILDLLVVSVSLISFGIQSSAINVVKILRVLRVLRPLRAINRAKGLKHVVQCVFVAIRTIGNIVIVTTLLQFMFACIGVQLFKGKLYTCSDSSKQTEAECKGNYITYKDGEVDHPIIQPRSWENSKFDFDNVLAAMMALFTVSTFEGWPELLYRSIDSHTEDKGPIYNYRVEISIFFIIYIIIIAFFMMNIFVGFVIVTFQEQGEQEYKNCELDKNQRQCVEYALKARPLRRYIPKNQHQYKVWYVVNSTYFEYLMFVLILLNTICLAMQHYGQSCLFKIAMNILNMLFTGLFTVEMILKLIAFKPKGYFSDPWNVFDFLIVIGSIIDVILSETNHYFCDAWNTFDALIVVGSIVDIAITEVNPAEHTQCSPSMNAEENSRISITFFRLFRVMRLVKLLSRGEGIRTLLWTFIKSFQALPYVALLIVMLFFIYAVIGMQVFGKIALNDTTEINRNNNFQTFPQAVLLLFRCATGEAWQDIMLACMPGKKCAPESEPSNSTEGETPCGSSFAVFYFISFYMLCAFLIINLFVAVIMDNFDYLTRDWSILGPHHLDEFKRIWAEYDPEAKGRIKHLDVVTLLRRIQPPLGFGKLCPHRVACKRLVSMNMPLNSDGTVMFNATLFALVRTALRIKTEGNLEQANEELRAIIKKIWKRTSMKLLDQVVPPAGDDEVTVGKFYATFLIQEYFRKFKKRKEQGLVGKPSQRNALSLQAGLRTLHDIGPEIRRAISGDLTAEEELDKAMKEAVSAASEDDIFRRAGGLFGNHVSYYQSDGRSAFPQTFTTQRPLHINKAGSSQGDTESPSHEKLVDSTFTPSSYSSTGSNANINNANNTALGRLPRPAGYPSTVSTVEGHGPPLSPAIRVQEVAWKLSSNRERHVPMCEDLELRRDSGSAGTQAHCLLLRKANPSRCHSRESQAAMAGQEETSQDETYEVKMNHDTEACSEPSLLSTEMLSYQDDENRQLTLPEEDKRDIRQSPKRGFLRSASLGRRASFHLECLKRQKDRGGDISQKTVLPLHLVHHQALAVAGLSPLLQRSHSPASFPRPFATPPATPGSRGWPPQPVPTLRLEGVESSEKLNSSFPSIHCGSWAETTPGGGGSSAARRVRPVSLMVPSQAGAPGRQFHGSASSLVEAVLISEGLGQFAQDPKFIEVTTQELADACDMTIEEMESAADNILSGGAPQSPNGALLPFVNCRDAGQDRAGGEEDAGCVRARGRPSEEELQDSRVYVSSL
Chain of Sodium channel protein type 5 subunit alpha (Q14524 whole entry): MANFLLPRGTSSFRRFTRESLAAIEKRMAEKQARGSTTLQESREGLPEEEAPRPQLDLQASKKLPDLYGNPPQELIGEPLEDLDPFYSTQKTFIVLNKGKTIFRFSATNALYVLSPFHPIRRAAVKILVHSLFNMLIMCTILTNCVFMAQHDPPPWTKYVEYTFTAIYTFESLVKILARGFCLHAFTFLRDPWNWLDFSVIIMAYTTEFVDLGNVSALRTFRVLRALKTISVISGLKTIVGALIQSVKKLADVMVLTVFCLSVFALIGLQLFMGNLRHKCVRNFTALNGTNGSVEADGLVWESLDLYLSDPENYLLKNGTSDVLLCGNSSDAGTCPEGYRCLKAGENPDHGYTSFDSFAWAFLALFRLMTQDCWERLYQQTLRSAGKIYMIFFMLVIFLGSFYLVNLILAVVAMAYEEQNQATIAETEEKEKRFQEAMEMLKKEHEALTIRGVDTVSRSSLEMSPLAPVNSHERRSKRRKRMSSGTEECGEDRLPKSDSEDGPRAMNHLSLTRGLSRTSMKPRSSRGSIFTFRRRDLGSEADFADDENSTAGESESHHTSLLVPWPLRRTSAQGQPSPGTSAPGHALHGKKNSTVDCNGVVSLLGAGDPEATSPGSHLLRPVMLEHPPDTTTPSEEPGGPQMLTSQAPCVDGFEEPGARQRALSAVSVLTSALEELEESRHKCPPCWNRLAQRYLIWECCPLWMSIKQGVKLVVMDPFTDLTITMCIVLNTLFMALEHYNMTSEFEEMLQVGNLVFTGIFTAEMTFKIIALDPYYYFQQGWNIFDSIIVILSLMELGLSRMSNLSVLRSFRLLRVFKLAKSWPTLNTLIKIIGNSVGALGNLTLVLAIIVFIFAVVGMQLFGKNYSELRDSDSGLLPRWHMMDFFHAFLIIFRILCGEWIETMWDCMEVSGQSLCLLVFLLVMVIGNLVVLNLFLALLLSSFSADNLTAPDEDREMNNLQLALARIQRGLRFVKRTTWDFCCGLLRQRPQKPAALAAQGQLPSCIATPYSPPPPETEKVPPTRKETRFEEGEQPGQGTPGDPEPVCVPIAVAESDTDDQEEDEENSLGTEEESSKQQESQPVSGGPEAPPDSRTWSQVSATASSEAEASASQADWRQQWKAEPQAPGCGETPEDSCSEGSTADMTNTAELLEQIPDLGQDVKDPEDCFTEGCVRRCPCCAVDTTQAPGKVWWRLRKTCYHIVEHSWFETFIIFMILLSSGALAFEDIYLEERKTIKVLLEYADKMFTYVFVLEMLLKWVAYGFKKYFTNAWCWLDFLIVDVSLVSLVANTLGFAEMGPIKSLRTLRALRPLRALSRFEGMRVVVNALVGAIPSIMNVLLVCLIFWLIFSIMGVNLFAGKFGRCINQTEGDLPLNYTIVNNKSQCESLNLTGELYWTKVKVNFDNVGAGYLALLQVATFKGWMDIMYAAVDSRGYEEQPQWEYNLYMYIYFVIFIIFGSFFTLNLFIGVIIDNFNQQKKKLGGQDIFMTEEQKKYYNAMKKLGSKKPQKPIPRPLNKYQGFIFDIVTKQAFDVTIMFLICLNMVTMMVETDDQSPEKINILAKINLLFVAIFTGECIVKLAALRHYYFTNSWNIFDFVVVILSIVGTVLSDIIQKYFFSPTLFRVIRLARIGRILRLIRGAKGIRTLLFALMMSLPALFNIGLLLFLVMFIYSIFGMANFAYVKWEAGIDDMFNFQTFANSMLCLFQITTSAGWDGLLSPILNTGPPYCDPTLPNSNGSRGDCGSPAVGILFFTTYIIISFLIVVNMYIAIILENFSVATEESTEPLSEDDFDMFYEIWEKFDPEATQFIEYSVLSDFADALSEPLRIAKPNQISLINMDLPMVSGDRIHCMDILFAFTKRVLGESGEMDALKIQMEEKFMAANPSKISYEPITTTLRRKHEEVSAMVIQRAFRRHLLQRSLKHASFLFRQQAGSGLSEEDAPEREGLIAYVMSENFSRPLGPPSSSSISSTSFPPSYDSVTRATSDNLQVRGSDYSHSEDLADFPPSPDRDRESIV

Compound: CCNc1cccc(Nc2c(C3CC3)cccc2C2CC2)n1
- IC50 [1]: 8.4 µM
- MIC90 [2]: 22 µM (≈ 6.46 µg/mL)

Compound: CCNc1ccc(F)c(Nc2c(CC)cccc2CC)n1
- IC50 [1]: 12 µM
- MIC90 [2]: > 100 µM

Compound: CCc1cccc(CC)c1Nc1cccc(NC(C)=O)n1
- IC50 [1]: > 100 µM
- IC50 [3]: > 100 µM
- MIC90 [2]: 62 µM (≈ 17.6 µg/mL)

Compound: CCc1cccc(CC)c1Nc1cccc(NCC(C)C)n1
- IC50 [1]: > 100 µM
- IC50 [3]: > 100 µM
- MIC90 [2]: 17 µM (≈ 5.06 µg/mL)

Compound: CCNc1nc(Nc2c(CC)cccc2CC)ccc1C
- IC50 [1]: 23 µM
- MIC90 [2]: 54 µM (≈ 15.3 µg/mL)

Compound: CCNc1nc(Nc2c(CC)cccc2CC)ccc1F
- IC50 [1]: 7.2 µM
- MIC90 [2]: > 100 µM

Compound: CCc1cccc(CC)c1Nc1cccc(NC(C)C)n1
- IC50 [1]: > 100 µM
- IC50 [3]: > 100 µM
- MIC90 [2]: 32 µM (≈ 9.07 µg/mL)

Compound: CCNc1cccc(Nc2c(CC)cc(S(=O)(=O)NCC)cc2CC)n1
- IC50 [3]: 1 µM
- MIC90 [2]: > 100 µM

Compound: CCNc1ccc(C)c(Nc2c(CC)cccc2CC)n1
- IC50 [1]: 1.8 µM
- MIC90 [2]: 55 µM (≈ 15.6 µg/mL)

Compound: CCNc1ccc(Cl)c(Nc2c(CC)cccc2CC)n1
- IC50 [1]: > 100 µM
- MIC90 [2]: > 100 µM

Compound: CCNc1nc(Nc2c(CC)cccc2CC)ccc1OC
- IC50 [1]: 87 µM
- IC50 [3]: > 100 µM
- MIC90 [2]: 62 µM (≈ 18.6 µg/mL)

Compound: C=C(NCC)NC(=O)Nc1c(CC)cccc1CC
- IC50 [4]: 3.8 µM
- CC50 [5]: > 30 µM
- CC50 [6]: > 30 µM
- IC50 [7]: 2.3 µM
- IC50 [8]: > 30 µM
- IC50 [9]: 8.4 µM
- IC50 [10]: 0.23 µM
- solubility [11]: > 1000 µg/mL
- Papp [12]: 4 ×10⁻⁶ cm/s
- MIC90 [2]: 3.1 µM (≈ 0.81 µg/mL)
- logD [13]: 1.09

Compound: CCc1cccc(CC)c1/N=C1\CNC(=N)N1CC
- IC50 [1]: 84 µM

Compound: CCNc1cccc(Nc2c(CC)cccc2CC)n1
- IC50 [4]: 6.9 µM
- IC50 [1]: 3.3 µM
- IC50 [8]: 11 µM
- IC50 [9]: 8.1 µM
- IC50 [3]: 0.71 µM
- MIC90 [2]: 42 µM (≈ 11.3 µg/mL)

Compound: CCNc1cccc(Nc2c(CC)cc(C(=O)NC)cc2CC)n1
- IC50 [3]: 3.3 µM
- MIC90 [2]: 69 µM (≈ 22.5 µg/mL)

Compound: CCc1cccc(CC)c1/N=C1\CN(CC)C(=N)N1
- IC50 [1]: 16 µM

Compound: CCNc1cccc(Nc2c(C(C)C)cccc2C(C)C)n1
- IC50 [3]: > 100 µM
- MIC90 [2]: > 100 µM

Compound: CCNc1cccc(Nc2c(CC(F)(F)F)cccc2CC(F)(F)F)n1
- IC50 [1]: > 100 µM
- IC50 [3]: 1.3 µM
- MIC90 [2]: > 100 µM

Compound: CCc1cccc(CC)c1Nc1cccc(NC)n1
- IC50 [4]: 3.8 µM
- IC50 [1]: 20 µM
- IC50 [8]: 7.5 µM
- IC50 [9]: < 3 µM
- MIC90 [2]: 42 µM (≈ 10.7 µg/mL)

Compound: CCNc1ccc(C(F)(F)F)c(Nc2c(CC)cccc2CC)n1
- IC50 [4]: 14 µM
- IC50 [1]: 30 µM
- IC50 [8]: > 30 µM
- IC50 [9]: 15 µM
- IC50 [3]: > 100 µM
- MIC90 [2]: 43 µM (≈ 14.5 µg/mL)

Compound: CCNc1cc(OC)cc(Nc2c(CC)cccc2CC)n1
- IC50 [4]: 3.7 µM
- IC50 [1]: 0.72 µM
- IC50 [8]: 5.7 µM
- IC50 [9]: 3.4 µM
- IC50 [3]: 5 µM
- MIC90 [2]: 16 µM (≈ 4.79 µg/mL)

Compound: CCNc1cc(C)cc(Nc2c(CC)cccc2CC)n1
- IC50 [1]: 6.4 µM
- MIC90 [2]: 22 µM (≈ 6.24 µg/mL)

Compound: CCNC1=N/C(=N/c2c(Cl)cccc2Cl)CN1
- IC50 [4]: > 30 µM
- IC50 [8]: > 30 µM
- IC50 [9]: > 30 µM
